The target of one assay is human APJ receptor (Homo sapiens (Human), UniProt P35414). As to the kind of experiment: [35S]GTPγS binding assay on membranes from CHO cells stably expressing human APJ receptor. It counts as biochemical. To be noted: membranes of CHO cells stably expressing human APJ receptor, read-out: Activity hAPJ SPA EC50 IP. The method, boiled down:
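[35S]GTPγS binding measured on membranes from CHO cells stably expressing FLAG-tagged human APJ, with GDP, MgCl2 and NaCl levels optimized beforehand. Incubation 90 min at RT, imager read-out; EC50 from non-linear regression, averaged over several independent experiments.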
human APJ receptor, sequence (P35414 whole entry): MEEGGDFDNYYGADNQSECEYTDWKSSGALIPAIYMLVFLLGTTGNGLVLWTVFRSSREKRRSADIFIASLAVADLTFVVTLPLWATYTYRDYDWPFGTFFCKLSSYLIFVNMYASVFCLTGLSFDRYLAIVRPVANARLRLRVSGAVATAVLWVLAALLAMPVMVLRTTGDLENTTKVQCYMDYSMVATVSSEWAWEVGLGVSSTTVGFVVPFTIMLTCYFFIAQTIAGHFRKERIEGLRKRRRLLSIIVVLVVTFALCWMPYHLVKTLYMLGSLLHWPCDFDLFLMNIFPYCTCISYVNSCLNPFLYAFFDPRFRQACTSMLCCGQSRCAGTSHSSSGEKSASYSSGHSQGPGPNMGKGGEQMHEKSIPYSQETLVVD
With `COc1cccc(-c2nnc(NS(=O)(=O)[C@@H](C)[C@H](OC)c3cnc(C)cn3)n2Cc2ccno2)n1` [Example 206.0, (1R,2S)-1-methoxy-N-(5-(6-methoxy-2-pyridinyl)-4-(1,2-oxazol-5-ylmethyl)-4H-1,2,4-triazol-3-yl)-1-(5-methyl-2-pyrazinyl)-2-propanesulfonamide], the EC50 (commonly the midpoint of the concentration-response curve) worked out at 210 nM.

`COc1cccc(-c2nnc(NS(=O)(=O)[C@@H](C)[C@H](C)c3ncc(Cl)cn3)n2Cc2ccno2)n1` [Example 207.0, (2S,3R)-3-(5-chloro-2-pyrimidinyl)-N-(5-(6-methoxy-2-pyridinyl)-4-(1,2-oxazol-5-ylmethyl)-4H-1,2,4-triazol-3-yl)-2-butanesulfonamide]: the EC50 stood at 30 nM.

Regarding `COc1cccc(-c2nnc(NS(=O)(=O)[C@@H](C)[C@H](C)c3ncc(Cl)cn3)n2Cc2ccon2)n1` [Example 260.0, (2S,3R)-3-(5-chloropyrimidin-2-yl)-N-(4-(isoxazol-3-ylmethyl)-5-(6-methoxypyridin-2-yl)-4H-1,2,4-triazol-3-yl)butane-2-sulfonamide], the EC50 was 5.1 nM.

Turning to `COc1cccc(-c2nnc(NS(=O)(=O)[C@@H](C)[C@@H](OC(C)C)c3ncc(C)cn3)n2Cc2ccon2)n1` [Example 261.0, (1S,2S)-1-isopropoxy-N-(4-(isoxazol-3-ylmethyl)-5-(6-methoxypyridin-2-yl)-4H-1,2,4-triazol-3-yl)-1-(5-methylpyrimidin-2-yl)propane-2-sulfonamide], the EC50 is 5.2 nM.

Regarding `CO[C@H](c1ncc(Cl)cn1)[C@H](C)S(=O)(=O)Nc1nnc(-c2cncc(C)c2)n1Cc1ccon1` [Example 262.0, (1R,2S)-1-(5-chloropyrimidin-2-yl)-N-(4-(isoxazol-3-ylmethyl)-5-(5-methylpyridin-3-yl)-4H-1,2,4-triazol-3-yl)-1-methoxypropane-2-sulfonamide], the EC50 was 200 nM.

In the case of `COc1cccc(-c2nnc(NS(=O)(=O)[C@@H](C)[C@H](OC)c3ncc(Cl)cn3)n2C23CC(C2)C3)n1` [Example 263.0, (1R,2S)—N-(4-(Bicyclo[1.1.1]pentan-1-yl)-5-(6-methoxypyridin-2-yl)-4H-1,2,4-triazol-3-yl)-1-(5-chloropyrimidin-2-yl)-1-methoxypropane-2-sulfonamide], the EC50 is 49 nM.

Regarding `COc1cccc(-c2nnc(NS(=O)(=O)[C@@H](C)[C@H](OC)c3ncc(Cl)cn3)n2Cc2ccno2)n1` [Example 266.0, (1R,2S)-1-(5-chloropyrimidin-2-yl)-N-(4-(isoxazol-5-ylmethyl)-5-(6-methoxypyridin-2-yl)-4H-1,2,4-triazol-3-yl)-1-methoxypropane-2-sulfonamide], the EC50 was determined as 9.6 nM.

Take `COc1cccc(-c2nnc(NS(=O)(=O)[C@@H](C)[C@H](OC)c3ncc(Cl)cn3)n2Cc2cc(C)on2)n1` [Example 271.0, (1R,2S)-1-(5-chloropyrimidin-2-yl)-1-methoxy-N-(5-(6-methoxypyridin-2-yl)-4-((5-methylisoxazol-3-yl)methyl)-4H-1,2,4-triazol-3-yl)propane-2-sulfonamide]: the half-maximal effective concentration (EC50) stood at 5.4 nM.

Turning to `COc1cccc(-c2nnc(NS(=O)(=O)[C@@H](C)[C@H](C)c3ncc(Cl)cn3)n2Cc2cc(C)on2)n1` [Example 272.0, (2S,3R)-3-(5-chloropyrimidin-2-yl)-N-(5-(6-methoxypyridin-2-yl)-4-((5-methylisoxazol-3-yl)methyl)-4H-1,2,4-triazol-3-yl)butane-2-sulfonamide], the EC50 was 12 nM.

On to `COc1cccc(-c2nnc(NS(=O)(=O)[C@@H](C)[C@H](OC)c3ncc(Cl)cn3)n2CCc2ccccn2)n1` [Example 283.0, (1R,2S)-1-(5-chloropyrimidin-2-yl)-1-methoxy-N-(5-(6-methoxypyridin-2-yl)-4-(2-(pyridin-2-yl)ethyl)-4H-1,2,4-triazol-3-yl)propane-2-sulfonamide], for which the EC50 is 69 nM.

For `COc1cccc(-c2nnc(NS(=O)(=O)[C@@H](C)[C@H](OC)c3ncc(Cl)cn3)n2CCc2cccnc2)n1` [Example 284.0, (1R,2S)-1-(5-chloropyrimidin-2-yl)-1-methoxy-N-(5-(6-methoxypyridin-2-yl)-4-(2-(pyridin-3-yl)ethyl)-4H-1,2,4-triazol-3-yl)propane-2-sulfonamide], the EC50 was found to be 120 nM.

On to `COc1cccc(-c2nnc(NS(=O)(=O)[C@@H](C)[C@H](C)c3ncc(C)cn3)n2Cc2ccon2)n1` [Example 291.0, (2S,3R)-N-(4-(isoxazol-3-ylmethyl)-5-(6-methoxypyridin-2-yl)-4H-1,2,4-triazol-3-yl)-3-(5-methylpyrimidin-2-yl)butane-2-sulfonamide], for which the EC50 was found to be 35 nM.

As to `CCc1cc(Cn2c(NS(=O)(=O)[C@@H](C)[C@H](OC)c3ncc(Cl)cn3)nnc2-c2cccc(OC)n2)on1` [Example 292.0, (1R,2S)-1-(5-Chloropyrimidin-2-yl)-N-(4-((3-ethylisoxazol-5-yl)methyl)-5-(6-methoxypyridin-2-yl)-4H-1,2,4-triazol-3-yl)-1-methoxypropane-2-sulfonamide], the EC50 was determined as 2.4 nM.

As to `CCc1cc(Cn2c(NS(=O)(=O)[C@@H](C)[C@H](OC)c3ncc(Cl)cn3)nnc2-c2cncc(C)c2)on1` [Example 293.0, (1R,2S)-1-(5-chloropyrimidin-2-yl)-N-(4-((3-ethylisoxazol-5-yl)methyl)-5-(5-methylpyridin-3-yl)-4H-1,2,4-triazol-3-yl)-1-methoxypropane-2-sulfonamide], the EC50 is 200 nM.

On to `CCc1cc(Cn2c(NS(=O)(=O)[C@@H](C)[C@@H](OC(C)C)c3ncc(C)cn3)nnc2-c2cccc(OC)n2)on1` [Example 294.0, (1S,2S)-N-(4-((3-ethylisoxazol-5-yl)methyl)-5-(6-methoxypyridin-2-yl)-4H-1,2,4-triazol-3-yl)-1-isopropoxy-1-(5-methylpyrimidin-2-yl)propane-2-sulfonamide], for which the EC50 was found to be 5.4 nM.

As to `COc1cccc(-c2nnc(NS(=O)(=O)[C@@H](C)[C@H](OC)c3ncc(Cl)cn3)n2CC2CCOCC2)n1` [Example 302.0, (1R,2S)-1-(5-chloropyrimidin-2-yl)-1-methoxy-N-(5-(6-methoxypyridin-2-yl)-4-((tetrahydro-2H-pyran-4-yl)methyl)-4H-1,2,4-triazol-3-yl)propane-2-sulfonamide], the EC50 stood at 53 nM.

As to “(1R,2S)-1-(5-Chloropyrimidin-2-yl)-1-methoxy-N-(4-((1R,2R)-2-methoxycyclobutyl)-5-(6-methoxypyridin-2-yl)-4H-1,2,4-triazol-3-yl)propane-2-sulfonamide and (1R,2S)-1-(5-chloropyrimidin-2-yl)-1-methoxy-N-(4-((1S,2S)-2-methoxycyclobutyl)-5-(6-methoxypyridin-2-yl)-4H-1,2,4-triazol-3-yl)propane-2-sulfonamide [Example 155.0]”, the half-maximal effective concentration (EC50) was determined as 3.1 nM.

Take “(1R,2S)-1-(5-chloropyrimidin-2-yl)-1-methoxy-N-(5-(6-methoxypyridin-2-yl)-4-(((S)-oxetan-2-yl)methyl)-4H-1,2,4-triazol-3-yl)propane-2-sulfonamide or (1R,2S)-1-(5-chloropyrimidin-2-yl)-1-methoxy-N-(5-(6-methoxypyridin-2-yl)-4-(((R)-oxetan-2-yl)methyl)-4H-1,2,4-triazol-3-yl)propane-2-sulfonamide [Example 140.0]”: the EC50 was 42 nM.

Turning to “(1R,2S)-1-(5-chloropyrimidin-2-yl)-1-methoxy-N-(5-(6-methoxypyridin-2-yl)-4-(((S)-oxetan-2-yl)methyl)-4H-1,2,4-triazol-3-yl)propane-2-sulfonamide or (1R,2S)-1-(5-chloropyrimidin-2-yl)-1-methoxy-N-(5-(6-methoxypyridin-2-yl)-4-(((R)-oxetan-2-yl)methyl)-4H-1,2,4-triazol-3-yl)propane-2-sulfonamide [Example 141.0]”, the half-maximal effective concentration (EC50) turned out to be 16 nM.

Another assay has as its system heart failure rats. As to the kind of experiment: Cardiac function in heart failure rats in vivo with ACE inhibitor captopril, with or without APJ agonist. Also on record: species or system rat. Particulars: captopril alone, acute settings. From the text:
The interaction between […] (ACE2) and Apelin biology is complicated. To investigate the interaction between the Apelin-APJ and ACE signalling pathways, we examined the improvement in cardiac function with APJ small molecule agonists in the presence of ACE inhibitor captopril in heart failure rats in vivo. […] However, in the presence of an APJ agonist, there was a shift in potency to the left with marked improvement in contractility and ejection fraction without changes in heart rate. These findings provide a new reference for the understanding of the regulation of ACE2 for the renin angiotensin aldosterone system (RAAS), independent of AT1R signaling and offer new potential drug targets for the treatment of diseases such as hypertension and heart failure. This work clearly establishes that combination of an agonist of the APJ receptor with an ARB such as losartan and/or with an ACE inhibitor such as captopril which may play an important role in providing greater efficacy in treating heart failure patients, for example in improving contractility and ejection fraction without changing the heart rate.
Take `C[C@H](CS)C(=O)N1CCC[C@H]1C(=O)O` [Captopril, captopril]: the “improvement in contractility or ejection fraction” value is reported as “does not show a marked improvement in contractility or ejection fraction”.

For the origin of these results see patent publication US10689367B2, “Triazole pyridyl compounds as agonists of the APJ receptor” (AMGEN INC., priority 2016, dated 2020).
